From article PMC6965176, “Targeting Forward and Reverse EphB4/EFNB2 Signaling by a Peptide with Dual Functions” (Scientific Reports, 2020)
Non-standard residues stand in square brackets, D forms with d. Residues, ends and D or L forms follow the SMILES beside them. No end group written: not given here.

Assays:
EphB4 = target: T1, EphB4 (Homo sapiens, UniProt P54760); test: SPR (BIACore) binding of peptides to immobilized EphB4; conditions: Table S1; SPR BIACore, EphB4 immobilized on CM5 chip, 25°C, HBSEP buffer pH 7.4, peptides 1.6-800 nM, duplicate, KD = Koff/Kon, 1:1 Langmuir model
T1 construct: purchased R&D Systems
T1 sequence (P54760 16-987): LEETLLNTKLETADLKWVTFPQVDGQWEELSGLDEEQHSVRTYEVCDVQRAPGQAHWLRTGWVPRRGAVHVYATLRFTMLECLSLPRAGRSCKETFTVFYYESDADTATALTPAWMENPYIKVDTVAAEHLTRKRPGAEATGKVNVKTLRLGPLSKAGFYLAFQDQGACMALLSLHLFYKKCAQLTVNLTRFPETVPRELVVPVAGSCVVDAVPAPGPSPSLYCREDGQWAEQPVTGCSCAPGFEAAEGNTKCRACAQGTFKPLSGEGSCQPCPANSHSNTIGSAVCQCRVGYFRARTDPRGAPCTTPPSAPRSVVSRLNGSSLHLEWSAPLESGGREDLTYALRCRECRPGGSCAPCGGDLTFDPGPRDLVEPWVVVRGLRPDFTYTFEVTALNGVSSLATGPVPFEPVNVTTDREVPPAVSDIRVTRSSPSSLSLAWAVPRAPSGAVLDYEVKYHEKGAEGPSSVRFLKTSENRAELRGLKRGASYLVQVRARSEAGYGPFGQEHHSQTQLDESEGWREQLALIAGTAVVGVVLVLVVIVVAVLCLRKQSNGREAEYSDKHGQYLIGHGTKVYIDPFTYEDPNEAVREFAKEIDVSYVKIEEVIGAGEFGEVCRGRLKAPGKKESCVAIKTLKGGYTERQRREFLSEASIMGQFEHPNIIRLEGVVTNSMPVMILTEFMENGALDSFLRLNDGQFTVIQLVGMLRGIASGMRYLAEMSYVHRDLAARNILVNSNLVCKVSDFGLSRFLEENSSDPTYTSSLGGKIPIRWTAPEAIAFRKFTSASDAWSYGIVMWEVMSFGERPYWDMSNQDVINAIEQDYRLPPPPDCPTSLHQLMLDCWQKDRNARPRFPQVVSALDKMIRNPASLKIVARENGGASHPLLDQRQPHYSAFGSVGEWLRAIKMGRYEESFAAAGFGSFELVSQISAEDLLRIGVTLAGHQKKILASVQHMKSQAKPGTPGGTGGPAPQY
Description: Surface plasmon resonance (SPR) binding and competition assays.
Immunoblotting, immunoprecipitation, and co-immunoprecipitation.

[1] = systemic exposure; cited from earlier work
Description: Our group previously employed CCPM successfully to improve pharmacokinetics and enhance peptide stability for in vivo imaging applications[28]–[31]. The cross-linked core of CCPM prevents premature micelle disintegration, while the brush-like polyethylene glycol forms a dense protective layer on the micelle surface that minimizes micelle uptake by the organs of the mononuclear phagocytic system.

[2] = target: T2, EphB4, purified recombinant human (rhEphB4) (human, UniProt P54760 16-987); test: SPR; competition: serial dilutions of BIDEN-AP (2 nM to 1000 nM) mixed with human EphB4 (30 nM) and injected onto EFNB2-Fc-coated CM-5 chips; conditions: both partners purified
[3] = target: T2, EphB4, purified recombinant human …; test: SPR; EphB4 immobilised on sensor chips, peptides or CCPM-BIDEN-AP injected; BIACore 3000; BIDEN-AP data fitted to a 1:1 mass transfer interaction model; details in the Supplementary Information; conditions: both partners purified
recombinant human EphB4 = target: T3, recombinant human EphB4 (human, UniProt P54760 16-539); test: SPR; BIACore 3000; rhEphB4 amine-coupled to CM5 chips; peptides injected at 1.6 nM to 800 nM, 30 uL/min, in duplicate; 25 C; HBSEP buffer (0.01 M HEPES pH 7.4, 0.15 M NaCl, 3 mM EDTA, 0.005% P20); 1:1 Langmuir binding model, KD = Koff/Kon; conditions: both partners purified
T3 construct: EphB4 (ephrin type-B receptor 4), human, recombinant; Amine-coupled to CM5 chips for SPR; a soluble extracellular form is likely; In the functional rows it stands for the EphB4 of the ovarian cancer cells; also called rhEphB4; source: bought: R&D Systems
T3 sequence (looked up): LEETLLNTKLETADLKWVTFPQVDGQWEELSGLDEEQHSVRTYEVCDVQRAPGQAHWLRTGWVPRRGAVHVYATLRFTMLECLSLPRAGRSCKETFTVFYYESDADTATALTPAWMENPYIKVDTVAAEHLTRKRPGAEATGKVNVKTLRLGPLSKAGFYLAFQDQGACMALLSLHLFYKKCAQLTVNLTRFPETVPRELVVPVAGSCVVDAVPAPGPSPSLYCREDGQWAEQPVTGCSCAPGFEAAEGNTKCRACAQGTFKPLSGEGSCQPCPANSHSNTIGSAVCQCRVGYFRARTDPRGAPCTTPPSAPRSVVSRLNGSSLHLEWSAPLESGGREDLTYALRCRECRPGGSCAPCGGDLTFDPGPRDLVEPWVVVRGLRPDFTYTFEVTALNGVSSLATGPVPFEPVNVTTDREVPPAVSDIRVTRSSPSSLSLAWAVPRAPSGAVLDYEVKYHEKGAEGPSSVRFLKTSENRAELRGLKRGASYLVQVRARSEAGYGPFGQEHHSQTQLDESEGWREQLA

[4] = target: T4, recombinant human EphB4 (human), P54760; test: as above
T4 chain: T3 sequence (looked up)

RF24 cells = test: Tubule formation of immortalized endothelial cells on Matrigel; type: cell-based; conditions: BIDEN-AP 15 µM or EFNB2-Fc 2 nM, 24 h, number of nodes (Fig. 4A,B)
Protocol: Figure 4 BIDEN-AP–based agents inhibit tube formation and sensitize resistant endothelial cells to anti-VEGF antibody. (A,B) Tube formation by RF24 cells treated with EFNB2-Fc (2 nM) or BIDEN-AP (15 µM) compared to untreated controls (CTL). Representative data from three independent experiments are presented. (A) Representative microphotographs of tubes formed by RF24 cells are shown (n = 3). Images were taken at × 100 magnification. (B) Quantification of the number of nodes per field in three technical replicates. […] (C) Representative flow cytometry plots from three independent experiments of RF24_Bev cells are shown here. SYTOX-negative staining represents the live cell population.
Matrigel (Becton Dickinson, Bedford, MA) was used to assess formation of capillary-like structures by RF24 cells on a basement membrane. Twelve-well Costar plates (Corning, Corning, NY) were coated with Matrigel (10 mg/mL) according to the manufacturer’s instructions. RF24 cells (1.0 × 10^4 cells/well) were seeded on Matrigel-coated plates and incubated at 37 °C for 60 min. […] The degree of tubule formation was determined by the number of nodes. […] The nodes for each image were counted manually. Five images (×100 magnification) per treatment were counted double blindly. Data are expressed as a percentage of the number of tubes in untreated control wells.

## CC[C@H](C)[C@H](NC(=O)[C@@H]1CCCN1C(=O)CNC(=O)[C@H](CC(N)=O)NC(=O)[C@@H]1CCCN1C(=O)[C@H](CO)NC(=O)[C@H](Cc1ccccc1)NC(=O)[C@H](CC(C)C)NC(=O)[C@H](Cc1ccc(O)cc1)NC(=O)[C@H](CC(N)=O)NC(=O)[C@@H](N)[C@@H](C)O)C(=O)N[C@@H](C)C(=O)N[C@H](CCCNC(=N)N)C(=O)N[C@@H](C)C(=O)N[C@@H](Cc1c[nH]c2ccccc12)C(N)=O [B4-002]
EphB4
  Kd: 39 nM

## CC[C@H](C)[C@H](NC(=O)[C@@H]1CCCN1C(=O)CNC(=O)[C@H](CC(N)=O)NC(=O)[C@@H]1CCCN1C(=O)[C@H](CO)NC(=O)[C@H](Cc1ccccc1)NC(=O)[C@@H](CC(C)C)NC(=O)[C@H](Cc1ccc(O)cc1)NC(=O)[C@H](CC(N)=O)NC(=O)[C@@H](N)[C@@H](C)O)C(=O)N[C@@H](C)C(=O)N[C@@H](CCCNC(=N)N)C(=O)N[C@@H](C)C(=O)N[C@@H](Cc1c[nH]c2ccccc12)C(N)=O [B4-004] (H-TNY[dL]FSPNGPIARAW-NH2)
EphB4
  Kd: 65 nM

## CC[C@H](C)[C@H](NC(=O)[C@@H]1CCCN1C(=O)CNC(=O)[C@H](CC(N)=O)NC(=O)[C@@H]1CCCN1C(=O)[C@H](CO)NC(=O)[C@@H](Cc1ccccc1)NC(=O)[C@H](CC(C)C)NC(=O)[C@H](Cc1ccc(O)cc1)NC(=O)[C@H](CC(N)=O)NC(=O)[C@@H](N)[C@@H](C)O)C(=O)N[C@@H](C)C(=O)N[C@@H](CCCNC(=N)N)C(=O)N[C@@H](C)C(=O)N[C@@H](Cc1c[nH]c2ccccc12)C(N)=O [B4-005] (H-TNYL[dF]SPNGPIARAW-NH2)
EphB4
  Kd: 75 nM

## TNYLFSPNGPIARA-NH2 [B4-008]
EphB4
  Kd: 13 nM

## TNYLFSPNGPIARAW-NH2 [TNYL-RAW]
[1]
  area-under-the time curve [AUC]: 29.1 %ID h/mL

## YSA-TNYL-RAW-dimer [B4-003]
EphB4
  Kd: 21 nM

B1: BIDEN-AP (bi-directional ephrin agonist peptide), TNd(Y)LFSPNGPIARAW (peptide)
peptide: TN[dY]LFSPNGPIARAW
notes: TNYL-RAW with L-Tyr-P3 replaced by D-Tyr; source: synthetic peptide
[2]
  IC50: 4 nM
[3]
  Kd: 7 nM

B2: TNYL-RAW (peptide)
peptide: TNYLFSPNGPIARAW
notes: known EphB4 antagonist peptide, 15 residues (P1-P15); Made on Rink resin, so a C-terminal amide is likely; source: synthetic peptide (solid phase, Rink resin, HPLC purified)
Recombinant human EphB4
  Kd: 3.1 nM

B3: Cyclo(KTNYLFSPNGPIARAWD) (peptide)
peptide: KTNYLFSPNGPIARAWD
modifications: also: cyclic, ring bond not given here
notes: TNYL-RAW with an added Lys before and Asp after it, cyclised; MW 1932 Da; also called B4-001; source: synthetic peptide (solid phase, Rink resin, HPLC purified)
Recombinant human EphB4
  Kd: 4.4 nM

## TNYLFSPNGPIARAW (modifications not checked) [YSA-TNYL-RAW-dimer]
[4]
  Kd: 21 nM

B4: EFNB2-Fc: ephrin B2 ligand fused to Fc, natural ligand of EphB4 (protein)
chain: IVLEPIYWNSSNSKFLPGQGLVLYPQIGDKLDIICPKVDSKTVGQYEYYKVYMVDKDQADRCTIKKENTPLLNCAKPDQDIKFTIKFQEFSPNLWGLEFQKNKDYYIISTSNGSLEGLDNQEGGVCQTRAMKILMKVGQDASSAGSTRNKDPTRRPELEAGTNGRSSTTSPFVKPNPGSSTDGNSAGHSGNNILGSEVALFA
modifications: left off: Fc, end not stated, kept
notes: ephrin B2 ligand fused to Fc, natural ligand of EphB4
RF24 cells
  formation of capillary-like tubes: significantly inhibited the formation of capillary-like tubes
